Source: US20230235378A1, “LZHEIMER'S DISEASE-SPECIFIC ALTERATIONS OF PROTEIN KINASE C EPSILON (PKC-EPSILON PROTEIN LEVELS” (WEST VIRGINIA UNIVERSITY BOARD OF GOVERNORS ON BEHALF OF …, priority 2010, published 2023)
pEC50: −log10 of the molar value.

Legend:
[1] = test system: PKC-ε; assay: PKC-ε level in skin fibroblasts treated with oligomeric Aß1-42 (western blot); type: cell-based, human
Procedure: Immunoblot Analysis: Protein lysates (20 μg of protein each) were boiled in 2× Laemmli buffer for 10 min and separated using a 4-20% gradient Tris-Glycine gels. Separated proteins were transferred to nitrocellulose membrane and the membrane was blocked in BSA at room temperature (RT) for 15 min and incubated with 1:2000 dilution anti-PKC-ε rabbit polyclonal antibody (Santa Cruz Biotechnology, Santa Cruz, Calif.; Cat No: sc-214), and 1:5000 dilution anti-ß-tubulin, class III rabbit monoclonal antibody (Millipore Corporation, Billerica Mass., Cat No: 04-1049) for 1 hr at RT. After the incubation, the membrane fractions were washed 3× with standard western blot washing buffer and further incubated with alkaline phosphatase conjugated secondary antibody (Jackson Immunoresearch Laboratories, USA) at 1:10000 dilution for 45 min. The membrane fractions were finally washed 3× with standard western blot washing buffer and developed using the 1-step NBT-BCIP substrate (Thermo Scientific, Rockford, Ill.). Signal intensities of the images were recorded in the ImageQuant RT-ECL (GE Life Sciences, Piscataway, N.J.) and densitometric quantification was performed using the IMAL software (Blanchette Rockefeller Neurosciences Institute, Morgantown, W. Va.). Intensities quantified in this way, for PKC-ε were normalized against ß-tubulin for each lane.
Preparation of Soluble Oligomeric Aß: Oligomeric Aß was prepared following the method described by Noguchi et al., (2009). Aß generated by this method was reported to be highly neurotoxic, 10-15 nm spherical Aß assemblies termed as amylospheroids (ASPDs). […]
Treatment of skin fibroblasts with oligomeric Aß1-42: Skin fibroblasts both from AD and AC cases were cultured for 7 days to 100% confluence. […] The resulting band intensities for PKC-ε were quantified using ImageQuant RT-ECL (GE Life Sciences, USA) and densitometric analysis was performed using the IMAL software (Blanchette Rockefeller Neurosciences Institute, Morgantown, W. Va.).

[2] = target: T1, purified PKC (Homo sapiens, UniProt Q02156); assay: PKC isozyme specificity: purified PKC preincubated with compound, activity measured radiometrically; type: biochemical; conditions: for concentration needed to activate PKC, relative to BR-101 (DCP-LA): compared with BR-101 (DCP-LA); for activation of purified PKC: used as methyl esters
T1 construct: purchased Calbiochem
T1 sequence (Q02156 1-737): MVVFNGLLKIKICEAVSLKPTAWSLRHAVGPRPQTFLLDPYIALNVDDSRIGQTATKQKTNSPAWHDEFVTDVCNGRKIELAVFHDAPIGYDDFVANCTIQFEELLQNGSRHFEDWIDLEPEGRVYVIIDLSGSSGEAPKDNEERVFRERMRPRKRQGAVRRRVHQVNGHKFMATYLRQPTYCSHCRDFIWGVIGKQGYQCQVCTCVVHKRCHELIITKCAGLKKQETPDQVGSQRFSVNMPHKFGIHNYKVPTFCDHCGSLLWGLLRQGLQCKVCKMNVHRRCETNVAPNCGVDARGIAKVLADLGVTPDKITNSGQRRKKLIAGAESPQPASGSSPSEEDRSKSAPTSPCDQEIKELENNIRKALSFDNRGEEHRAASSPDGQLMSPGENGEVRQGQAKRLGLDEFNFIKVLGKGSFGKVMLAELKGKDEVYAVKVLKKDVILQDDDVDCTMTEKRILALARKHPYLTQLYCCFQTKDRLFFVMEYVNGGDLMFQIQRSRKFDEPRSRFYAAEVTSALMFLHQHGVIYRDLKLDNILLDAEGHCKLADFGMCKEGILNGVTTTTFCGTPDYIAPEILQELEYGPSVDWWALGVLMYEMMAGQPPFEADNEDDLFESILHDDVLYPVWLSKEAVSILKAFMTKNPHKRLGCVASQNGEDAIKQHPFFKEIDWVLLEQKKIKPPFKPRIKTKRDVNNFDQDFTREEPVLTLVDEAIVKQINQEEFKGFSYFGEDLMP
Procedure: (§1) Protein Kinase C Assay. Rat hippocampal cells were cultured and scraped in 0.2 ml homogenization buffer (20 mM Tris-HCl, pH 7.4, 50 mM NaF, 1 μg/ml leupeptin, and 0.1 mM PMSF) and homogenized by sonication in a Marsonix micro-probe sonicator (5 sec, 10 W). To measure PKC, 10 μl of cell homogenate or purified PKC isozyme (purchased from Calbiochem) was incubated for 15 min at 37° C. in the presence of 10 μM histones, 4.89 mM CaCl2, 1.2 μg/μl phosphatidyl-L-serine, 0.18 μg/μl 1,2-dioctanoyl-sn-glycerol, 10 mM MgCl2, 20 mM HEPES (pH 7.4), 0.8 mM EDTA, 4 mM EGTA, 4% glycerol, 8 μg/ml aprotinin, 8 μg/ml leupeptin, and 2 mM benzamidine. 0.5 μCi [γ-32P]ATP was added and 32P-phosphoprotein formation was measured by adsorption onto phosphocellulose as described previously. Nelson and Alkon, J. Neurochemistry. 1995; 65: 2350-57. For measurements of activation by BR-101 (DCP-LA) and similar compounds, PKC activity was measured in the absence of diacylglycerol and phosphatidylserine, as described by Kanno et al., and PKC δ, ε, η, and were measured in the absence of added EGTA and CaCl2, as described by Kanno et al., J. Lipid Res. 2006; 47: 1146-50. Low concentrations of Ca2+ are used because high Ca2+ interacts with the PKC phosphatidylserine binding site and prevents activation. For measurements of bryostatin activation, 1,2-diacylglycerol was omitted unless otherwise stated.
To determine their PKC isozyme specificity, the new compounds were preincubated with purified PKC for five minutes and the PKC activity was measured radiometrically.

[3] = test system: PKC; conditions: read-out: EC50 (affinity for PKC); cited from earlier work
[4] = test system: PKC; assay: PKC activity in cultured rat hippocampal H19-7/IGF-IR cells; type: cell-based; conditions: 8 h; data not shown
Procedure: Cell Culture. Rat hippocampal H19-7/IGF-IR cells (ATCC, Manassas, Va.) were plated onto poly-L-lysine coated plates and grown at 35° C. in DMEM/10% FCS for several days until about 50% coverage was obtained. The cells were then induced to differentiate into a neuronal phenotype by replacing the medium with 5 ml N2 medium containing 10 ng/ml basic fibroblast growth factor at 39° C. and grown in T-75 flasks at 37° C. Human SH-SY5Y neuroblastoma cells (ATCC) were cultured in 45% F 12K/45% MEM/10% FCS. Mouse N2A neuroblastoma cells were cultured in DMEM/10% FCS without glutamine. Rat hippocampal neurons from 18-day-old embryonic
as §1
PKC activators that bind to the diacylglycerol binding site, including bryostatin, gnidimacrin, and phorbol esters, produce a transient activation of PKC activity, followed by a prolonged downregulation. Nelson et al., Trends in Biochem. Sci. 2009; 34: 136-45. This was confirmed in cultured rat hippocampal cells. Incubation of rat 1119-7/IGF-IR cells with (0.04 nM and 0.2 nM) bryostatin produced a 2-fold activation that lasted 30 min, followed by a 20% downregulation that returned to baseline by 24 h (data not shown). […] This sustained activation was only observed in primary neurons.

[5] = test system: Aß; conditions: 1 μM, 8 h, cultured COS cells; cited from earlier work

Compound: Soluble Aß oligomer: soluble >100 kDa oligomers (amylospheroids) prepared from synthetic Aß1-42 by the method of Noguchi et al.
- PKC-ε in age-matched control (AC) skin fibroblasts ([1]; 500 nM, 24 hrs, five AC cases): decreases
- PKC-ε in AD skin fibroblasts ([1]; 500 nM, 24 hrs, five AD cases): did not show decrease in expression
- AC-AD ratio of normalized PKC-ε in treated cells ([1]; untreated cells 1.4): ~1

Compound: CCCCCC1CC1CC1CC1CC1CC1CC1CC1CCCC(=O)OC (stereo not drawn) [BR-115, methyl 4-(2-((2-((2-((pentylcyclopropyl)methyl)cyclopropyl)methyl)cyclopropyl)methyl)cyclopropyl)butanoate methyl ester]
- concentration needed to activate PKC, relative to BR-101 (DCP-LA) [2]: approx. 100 times lower
- activation of purified PKC [2]: activated purified PKC to a similar extent

Compound: Linoleic alcohol cyclopropanated [BR-105]
- effect on PKC [2]: little or no effect

Compound: CCC1CC1CC1CC1CC1CC1CC1CC1CC1CC1CCCC(=O)OC (stereo not drawn) [BR-114]
- concentration needed to activate PKC, relative to BR-101 (DCP-LA) [2]: approx. 100 times lower
- activation of purified PKC [2]: activated purified PKC to a similar extent

Compound: Vernolic acid cyclopropanated methyl ester [BR-109]
- concentrations at which PKC was inhibited [2]: above 1 μM

Compound: CCCCCC1OC1C/C=C\CCCCCCCC(=O)OC (stereo in doubt) [BR-117, vernolic acid methyl ester]
- effect on PKC [2]: little or no effect

Compound: epoxystearic acid [BR-116]
- effect on PKC [2]: little or no effect

Compound: CCCCCCCCCCCCCC(=O)O[C@@H]1[C@@H](C)[C@@]2(O)[C@@H](C=C(CO)C[C@]3(O)C(=O)C(C)=C[C@@H]23)[C@@H]2C(C)(C)[C@]12OC(C)=O [PMA, phorbol 12-myristate 13-acetate]
- downregulation of PKC activity [4]: strongly downregulated

Compound: Linolenyl alcohol cyclpropanated [BR-104]
- effect on PKC [2]: little or no effect

Compound: CCCC(=O)O[C@@H]1[C@@H](C)[C@@]2(O)[C@@H](C=C(CO)C[C@]3(O)C(=O)C(C)=C[C@@H]23)[C@@H]2C(C)(C)[C@]12OC(=O)CCC [PdBu, Phorbol-12,13-dibutyrate]
- change in Aß [5]: increase in Aß
